According to patent US6110962A, “11-aryl-benzo[B]naphtho[2,3-D]furans and 11-aryl-benzo[B]naphtho[2,3-D]thiophenes useful in the treatment of insulin resistance and hyperglycemia” (American Home Products Corporation, priority 1999, dated 2000):

Legend:
[1] = tested on: rat hepatic microsomal PTPases; details: PTPase activity, compound at 50 μM
[2] = biological target: T1, Human recombinant PTP1B (Homo sapiens, UniProt P18031); assay type: biochemical; details: read-out: IC50
T1 construct: made in house
T1 sequence (P18031 1-435): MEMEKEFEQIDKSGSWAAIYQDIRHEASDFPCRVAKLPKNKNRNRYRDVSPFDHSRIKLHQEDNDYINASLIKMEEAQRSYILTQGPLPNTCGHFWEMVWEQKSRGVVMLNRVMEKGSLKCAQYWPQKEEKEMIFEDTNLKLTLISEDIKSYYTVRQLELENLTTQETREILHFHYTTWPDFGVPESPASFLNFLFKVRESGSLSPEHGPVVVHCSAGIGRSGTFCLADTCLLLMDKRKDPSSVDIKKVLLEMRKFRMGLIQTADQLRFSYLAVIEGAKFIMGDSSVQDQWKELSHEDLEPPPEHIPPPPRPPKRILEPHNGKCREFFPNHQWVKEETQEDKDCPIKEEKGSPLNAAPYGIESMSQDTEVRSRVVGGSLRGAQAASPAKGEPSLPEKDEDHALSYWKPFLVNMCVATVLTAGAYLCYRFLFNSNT

| % Change from Control [1] [%] | IC50 [2] [nM] | Structure (SMILES) |
| --- | --- | --- |
| -58.12 | – | N#Cc1cc(-c2c3ccccc3cc3sc4ccccc4c23)cc(C#N)c1O [Example 32, 5-Benzo[b]naphtho[2,3-d]thiophen-11-yl-2-hydroxy-isophthalonitrile] |
| -8.92 | – | COc1ccc(-c2c3ccccc3cc3sc4ccccc4c23)cc1 [Example 23, 11-(4-Methoxy-phenyl)-benzo[b]naphtho[2,3-d]thiophene] |
| -70.32 | – | O=P(O)(O)C(CCc1ccccc1)Oc1c(Br)cc(-c2c3ccccc3c(Br)c3sc4ccccc4c23)cc1Br (stereo not shown) [Example 164] |
| -57.89 | – | O=C(O)COc1c(I)cc(-c2c3ccccc3cc3sc4ccccc4c23)cc1I [Example 83, (4-Benzo[b]naphtho[2,3-d]thiophen-11-yl-2,6-diiodo-phenoxy)-acetic acid] |
| -16.83 | – | COc1c(Br)cc(-c2c3ccccc3c(Br)c3sc4ccccc4c23)cc1Br [Example 22] |
| -54.82 | – | Oc1c(Br)cc(-c2c3ccccc3c(C(F)(F)F)c3sc4ccccc4c23)cc1Br [Example 61, 2,6-Dibromo-4-(6-trifluoromethyl-benzo[b]naphtho[2,3-d]thiophen-11-yl)-phenol] |
| -21.61 | – | O=C(O)COc1ccc(-c2c3ccccc3cc3sc4cc(OCC(=O)O)ccc4c23)cc1 [Example 74, [11-(4-Carboxymethoxy-phenyl)-benzo[b]naphtho[2,3-d]thiophen-3-yloxy]-acetic acid] |
| -36.82 | – | Oc1c(Br)cc(-c2c3ccccc3c(Br)c3oc4ccccc4c23)c(O)c1Br [Example 211, 2,6-Dibromo-4-(6-bromo-benzo[b]naphtho[2,3-d]furan-11-yl)-3-hydroxy-phenol] |
| -75.75 | – | O=C(O)COc1c(F)ccc(-c2c3ccccc3c(Br)c3sc4ccccc4c23)c1F [Example 201, [3-(6-Bromo-benzo[b]naphtho[2,3-d]thiophen-11-yl)-2.6-difluoro-phenoxy]-acetic acid] |
| -66.60 | – | O=C(O)[C@@H](CCN1C(=O)c2ccccc2C1=O)Oc1c(Br)cc(-c2c3ccccc3c(Br)c3sc4ccccc4c23)cc1Br [Example 147, (R)-2-[2,6-Dibromo-4-(6-bromo-benzo[b]naphtho[2,3-d]thiophen-11-yl)-phenoxy]-4-(1,3-dioxo-1,3-dihydro-isoindol-2-yl)-butyric acid] |
| – | 2000 | Oc1c(-c2ccccc2)cc(-c2c3ccccc3cc3sc4ccccc4c23)cc1-c1ccccc1 [Example 190, 5'-Benzo[b]naphtho[2,3-d]thiophen-11-yl-[1,1':3', 1.increment.]terphenyl-2'-ol] |
| 3.16 | – | COc1c(C)cc(-c2c3ccccc3c(C)c3sc4ccccc4c23)cc1C [Example 24, 11-(4-Methoxy-3,5-dimethyl-phenyl)-6-methyl-benzo[b]naphtho[2,3-d]thiophene] |
| -67.03 | – | N#Cc1c2ccccc2c(-c2cc(Br)c(OCC(=O)O)c(Br)c2)c2c1sc1ccccc12 [Example 88] |
| -43.68 | – | Oc1ccc(-c2c3ccccc3cc3sc4cc(O)ccc4c23)cc1 [Example 15, 11-(4-Hydroxy-phenyl)-benzo[b]naphtho[2,3-d]thiophen-3-ol] |
| -98.45 | – | O=C(O)COc1c2ccccc2c(-c2cc(Br)c(O[C@H](Cc3ccccc3)C(=O)O)c(Br)c2)c2c1sc1ccccc12 [Example 185] |
| -8.68 | – | Oc1c(I)cc(-c2c3ccccc3cc3sc4ccccc4c23)cc1I [Example 26, 4-(Benzo[b]naphtho[2,3-d]thiophen-11-yl)-2,6-diiodo-phenol] |
| -18.89 | – | O=C(O)COc1ccc(-c2c3ccc(OCC(=O)O)cc3cc3sc4ccccc4c23)cc1 [Example 76, [11-(4-Carboxymethoxy-phenyl)-benzo[b]naphtho[2.3-d]thiophen-8-yloxy]-acetic acid] |
| -3.40 | – | CC(=O)Oc1ccc(-c2c3ccccc3cc3sc4ccccc4c23)cc1 [Example 34, 4-(Benzo[b]naphtho[2,3-d]thiophen-11-yl-phenol)acetate ester] |
| -57.64 | – | O=C(O)COc1c(Br)cc(-c2c3ccccc3c(Br)c3c2c2ccccc2[s+]3[O-])cc1Br (stereo not shown) [Example 187] |
| 1.03 | – | COc1ccc(C(=O)c2c(Cc3ccccc3)sc3ccccc23)cc1 [Example 7, (2-Benzyl-benzo[b]thiophen-3-yl)-(4-methoxy-phenyl)-methanone] |
| -16.99 | – | O=C(NO)[C@@H](Cc1ccccc1)Oc1c(Br)cc(-c2c3ccccc3c(Br)c3sc4ccccc4c23)cc1Br [Example 167] |

| % Change from Control [1] [%] | IC50 [2] [nM] | Structure (SMILES) |
| --- | --- | --- |
| -74.87 | – | O=C(O)COc1c(Br)cc(-c2c3c(c(Br)c4ccccc24)S(=O)(=O)c2ccccc2-3)cc1Br [Example 186] |
| -38.31 | – | Cc1cc(-c2c3ccccc3c(C)c3sc4ccccc4c23)cc(C)c1O [Example 25, 2,6-Dimethyl-4-(6-methyl-benzo[b]naphtho[2,3-d]thiophen-11-yl)-phenol] |
| -95.80 | – | O=C(O)COc1cc(-c2c3ccccc3c(Br)c3sc4ccccc4c23)cc(Br)c1OCC(=O)O [Example 94] |
| -80.42 | – | O=C(O)COc1c(Br)cc(-c2c3ccccc3c(Br)c3oc4ccccc4c23)c(O)c1Br [Example 217] |
| -35.78 | – | Oc1ccc(-c2c3ccccc3cc3sc4ccccc4c23)cc1I [Example 27, 4-(Benzo[b]naphtho[2,3-d]thiophen-11-yl)-2-iodo-phenol] |
| -75.29 | – | O=C(O)COc1ccc2c(c1)sc1cc3ccccc3c(-c3ccc(O[C@H](Cc4ccccc4)C(=O)O)cc3)c12 [Example 119] |
| -79.04 | – | O=C(O)COc1cccc(-c2c3ccccc3c(Br)c3sc4ccccc4c23)c1 [Example 90, [3-(6-Bromo-benzo[b]naphtho[2,3-d]thiophen-11-yl)-phenoxyl]-acetic acid] |
| -71.67 | – | O=C(O)COc1ccc(-c2c3ccccc3cc3sc4ccccc4c23)cc1I [Example 85, (4-Benzo[b]naphtho[2,3-d]thiophen-11-yl-2-iodo-phenoxy)-acetic acid] |
| -69.35 | – | Cc1cc(-c2c3ccccc3c(C)c3sc4ccccc4c23)cc(C)c1OCC(=O)O [Example 86, {2,6-Dimethyl-4-[6-methyl-(benzo[b]naphtho[2,3-d]thiophen-11-yl)]-phenoxy}-acetic acid] |
| -3.50 | – | CS(=O)(=O)Oc1ccc(-c2c3ccccc3c(I)c3sc4ccccc4c23)cc1 [Example 47, Methanesulfonic acid 4-(6-Iodo-benzo[b]naphtho[2,3-d]thiophen-11-yl)-phenylester] |
| -75.45 | – | O=C(O)COc1cc(Br)c(-c2c3ccccc3c(Br)c3sc4ccccc4c23)cc1OCC(=O)O [Example 95] |
| -73.91 | – | O=C(O)COc1ccc(-c2c3ccccc3cc3sc4ccccc4c23)cc1 [Example 84, [4-Benzo[b]naphtho[2,3-d]thiophen-11-yl-phenoxy]-acetic acid] |
| -58.35 | – | O=C(O)COc1ccc(-c2c3ccccc3c(Br)c3sc4ccccc4c23)cc1OCC(=O)O [Example 93] |
| -34.19 | – | Oc1ccc(-c2c3ccccc3cc3sc4ccccc4c23)cc1 [Example 14, 4-Benzo[b]naphtho[2,3-d]thiophen-11-yl-phenol] |
| -69.20 | – | O=C1NC(=O)C(Oc2c(Br)cc(-c3c4ccccc4c(Br)c4sc5ccccc5c34)cc2Br)S1 (stereo not shown) [Example 175, 5-[2,6-Dibromo-4-(6-bromo-benzo[b]naphtho[2,3-d]thiophen-11-yl)-phenoxy]-thiazolidinedione-2.4-dione] |
| -54.40 | – | O=C(O)COc1ccc(-c2c3ccccc3cc3oc4ccccc4c23)cc1 [Example 213, 4-(Benzo[b]naphtho[2,3-d]furan-11-yl-phenoxy)-acetic acid] |
| -59.82 | – | O=C(O)COc1ccc2c(c1)sc1cc3ccccc3c(-c3ccc(O[C@H](CCN4C(=O)c5ccccc5C4=O)C(=O)O)cc3)c12 [Example 149] |
| 0.39 | – | BrC[C@@H](Cc1ccccc1)Oc1c(Br)cc(-c2c3ccccc3c(Br)c3sc4ccccc4c23)cc1Br [Example 174, (R)-6-Bromo-11-[3,5-dibromo-4-(1-bromomethyl-2-phenyl-ethoxy)-phenyl]-benzo[b]naphtho[2,3-d]thiophene] |
| -26.86 | – | Oc1ccc(-c2c3ccc(O)cc3cc3sc4ccccc4c23)cc1 [Example 20, 11-(4-Hydroxy-phenyl)-benzo[b]naphtho[2,3-d]thiophen-8-ol] |
| 1.00 | – | COc1c(C#N)cc(-c2c3ccccc3cc3sc4ccccc4c23)cc1C#N [Example 30, 5-Benzo[b]naphtho[2,3-d]thiophen-11-yl-2-methoxy-isophthalonitrile] |
| -38.40 | – | O=P(O)(O)COc1ccc(-c2c3ccccc3cc3sc4ccccc4c23)cc1 [Example 163, [4-(Benzo[b]naphtho[2,3-d]thiophen-11-yl)-phenoxymethyl]-phosphonic acid] |

| Structure (SMILES) | % Change from Control [1] [%] | IC50 [2] [nM] |
| --- | --- | --- |
| CCOP(=O)(OCC)C(CCc1ccccc1)Oc1c(Br)cc(-c2c3ccccc3c(Br)c3sc4ccccc4c23)cc1Br (stereo not shown) [Example 161, {1-2,6-Dibromo-4-(6-bromo-benzo[b]naphtho[2,3-d]thiophen-11-yl)-phenoxyl-3-phenyl-propyl}-phosphonic acid, diethyl ester] | -8.03 | – |
